Measurements published in patent US20240174596A1 (Northwestern University, priority 2021, published 2024).
Structures can show the parent of a compound that is named as a salt.

Target: T1, hOAT (Homo sapiens, UniProt P04181)
T1 construct: made in house; host or cells: E. coli BL21(DE3)
T1 sequence (P04181 26-439): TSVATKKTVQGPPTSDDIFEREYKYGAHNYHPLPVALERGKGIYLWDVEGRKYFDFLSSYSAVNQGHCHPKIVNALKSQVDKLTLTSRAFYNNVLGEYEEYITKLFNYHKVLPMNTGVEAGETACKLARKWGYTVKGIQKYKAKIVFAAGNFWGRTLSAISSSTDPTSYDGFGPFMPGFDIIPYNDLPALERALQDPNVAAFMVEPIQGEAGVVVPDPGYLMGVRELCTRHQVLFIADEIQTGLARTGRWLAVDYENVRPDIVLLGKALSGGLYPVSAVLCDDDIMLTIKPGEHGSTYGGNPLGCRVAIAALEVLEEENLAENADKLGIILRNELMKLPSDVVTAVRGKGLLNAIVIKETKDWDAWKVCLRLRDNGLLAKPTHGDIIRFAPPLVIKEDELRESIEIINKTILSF
Experiment: Transient state (stopped-flow) measurements of hOAT reacting with SS-1-148
Type: biochemical
Settings: 10° C., pH 7.5
Description: FIG. 6. Transient state absorption changes observed at 275, 420, and 560 nm for hOAT reacting with SS-1-148. OAT (12.7 μM final) was mixed with SS-1-148 (126, 251, 502, 1004, 2008, 4016 μM), and CCD spectra were collected for the timeframe 0.009-49.2 seconds. (A) The data observed at 420 nm fit to a linear combination of three exponential terms according to equation (3) described in the supporting information. The arrow indicates the trend observed in amplitude for increasing inhibitor concentration. (B) The observed rate constant dependence of the first phase observed at 420 nm fit to equation (5) described in the supporting information. The values for k2 and k3 indicated are the average values obtained from the fit in FIG. 5A. The fit is shown in red dashes. (C) The data observed at 560 nm. The curved arrow indicates the trend observed in amplitude for increasing inhibitor concentration. […] The fit is shown in red dashes. (D) The data observed at 275 nm over 2000 sec obtained in the presence of 8032 μM SS-1-148 fit to a linear combination of two exponential terms according to equation (4) in the supporting information. The fit is shown in red dashes.
FIG. 7. Partial deconvolution by singular value decomposition (SVD) of transient state absorption changes observed for hOAT reacting with SS-1-148. hOAT (6.94 μM; final concentration) was reacted in a stopped-flow spectrophotometer with SS-1-148 (1040 μM; final concentration) at 10° C. To obtain time resolution sufficient to analyze kinetic rates spanning four orders of magnitude, a composite CCD absorbance dataset was prepared spanning 250-800 nm and 0.0137-9843 sec by splicing together averaged short and long time-frame datasets. […] The species concentration profile based on the rate constants used to fit the dataset (B). A three-dimensional depiction of a subset of spectra from the dataset analyzed (C).
For each concentration of the inhibitor, CCD spectral datasets were collected in duplicate for 50 sec, and the duplicates were averaged For the highest concentration of inhibitor (8 mM) duplicate CCD datasets were acquired for two timeframes (0.0025-12.4 sec and 0.0025-2480 sec). Duplicate datasets for anyone timeframe were averaged and then spliced together at 12 sec to form one dataset with sufficient time resolution to adequately describe rapid and slow processes. […] In the process, the rate constants were fixed to the values measured using analytical fits to data extracted for single wavelengths that assume successive first-order processes according to the equations (3), (4), and (5). Abs is absorbance, Ax are the amplitudes associated with each observed phase, kx are the corresponding rate constants, and C is the absorbance endpoint.

N[C@H]1C=C(C(=O)O)CC1(F)F [SS-1-148, (S)-3-Amino-4,4-difluorocyclopent-1-enecarboxylic acid hydrochloric acid salt]
rate constant of final phase (increase at ~275 nm): 0.007 s⁻¹
rate dependence of second external aldimine formation (bimolecular reaction): 6200 M⁻¹ s⁻¹
rate of accumulation of quinonoid species (~560 nm): 0.4 s⁻¹
rate of quinonoid decay: 0.09 s⁻¹
